Experimental data: ChEMBL document CHEMBL1201862, “PubChem BioAssay data set” (2004)
The source made the active and inactive calls.

Assays:
Cytochrome P450 3A4 = Cytochrome P450 3A4 (Homo sapiens, UniProt P08684); conditions: Potency;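 further: confirmatory qHTS run detecting inhibitors and substrates of CYP3A4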
Leucine aminopeptidase = biological target: T1, Leucine aminopeptidase (Plasmodium falciparum 3D7, UniProt Q8IL11); assay: P. falciparum M17LAP inhibitors, primary screen, biochemical, fluorogenic H-Leu-NHMec substrate, 1536-well (AID 1619); format: functional
T1 sequence (Q8IL11 whole entry): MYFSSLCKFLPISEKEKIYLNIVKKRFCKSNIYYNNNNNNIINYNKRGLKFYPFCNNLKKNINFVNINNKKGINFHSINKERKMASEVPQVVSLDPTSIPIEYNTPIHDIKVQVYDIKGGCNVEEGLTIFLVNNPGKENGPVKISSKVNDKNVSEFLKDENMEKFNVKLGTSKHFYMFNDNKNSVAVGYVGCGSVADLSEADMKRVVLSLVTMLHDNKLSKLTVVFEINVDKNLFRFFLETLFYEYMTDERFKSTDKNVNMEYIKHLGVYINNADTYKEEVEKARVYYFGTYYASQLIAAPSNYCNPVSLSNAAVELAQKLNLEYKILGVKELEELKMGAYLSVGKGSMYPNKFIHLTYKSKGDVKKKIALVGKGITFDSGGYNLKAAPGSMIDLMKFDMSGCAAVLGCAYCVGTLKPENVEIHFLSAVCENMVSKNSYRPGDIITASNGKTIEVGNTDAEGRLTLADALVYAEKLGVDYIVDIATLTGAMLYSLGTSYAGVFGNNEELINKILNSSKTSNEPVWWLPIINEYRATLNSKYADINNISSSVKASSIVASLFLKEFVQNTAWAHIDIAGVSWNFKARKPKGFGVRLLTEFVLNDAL

[1] = biological target: T2, RNA-binding protein pos-1 (Caenorhabditis elegans, UniProt G5EF15); assay: inhibitors of POS-1/mex-3 RNA binding, dose response, biochemical, fluorescence polarization (AID 1964);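 further: purified POS-1 fused to maltose binding protein made in E. coli; potency of compounds blocking POS-1 binding to fluorescent RNA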
T2 sequence (G5EF15 whole entry): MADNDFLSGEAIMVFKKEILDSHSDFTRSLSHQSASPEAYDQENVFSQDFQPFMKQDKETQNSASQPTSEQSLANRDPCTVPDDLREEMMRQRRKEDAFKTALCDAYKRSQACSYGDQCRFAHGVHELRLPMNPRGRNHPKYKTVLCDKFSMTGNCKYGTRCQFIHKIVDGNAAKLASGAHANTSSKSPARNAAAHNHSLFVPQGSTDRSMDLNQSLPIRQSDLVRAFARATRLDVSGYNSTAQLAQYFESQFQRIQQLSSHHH

[2] = biological target: T3, Zinc finger protein mex-5 (Caenorhabditis elegans, UniProt Q9XUB2); assay: MEX-5/TCR-2 RNA interaction inhibitors, dose response, biochemical, C. elegans, fluorescence polarization (AID 1960)
T3 sequence (Q9XUB2 whole entry): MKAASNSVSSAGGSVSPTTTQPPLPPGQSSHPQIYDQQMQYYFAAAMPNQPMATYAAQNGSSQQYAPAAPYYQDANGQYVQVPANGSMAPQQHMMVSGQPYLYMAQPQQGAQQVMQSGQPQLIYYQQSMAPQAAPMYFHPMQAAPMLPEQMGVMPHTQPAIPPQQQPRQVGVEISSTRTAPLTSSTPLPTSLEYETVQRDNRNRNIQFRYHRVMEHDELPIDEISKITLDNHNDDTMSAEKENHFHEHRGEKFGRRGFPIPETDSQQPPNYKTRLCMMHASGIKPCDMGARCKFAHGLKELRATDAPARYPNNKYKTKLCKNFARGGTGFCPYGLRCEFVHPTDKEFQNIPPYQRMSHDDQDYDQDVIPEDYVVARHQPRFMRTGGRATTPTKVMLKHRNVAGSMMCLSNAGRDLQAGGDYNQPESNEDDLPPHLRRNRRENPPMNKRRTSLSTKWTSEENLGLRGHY

[3] = biological target: Voltage-dependent T-type calcium channel subunit alpha-1H (Homo sapiens, UniProt O95180); format: functional;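 further: channel activity triggered by adding a high calcium stimulation buffer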
[4] = biological target: T4, Heat shock factor protein 1 (Mus musculus, UniProt P38532); assay: HSF1 potentiators in luciferase reporter cells, confirmation, cell-based, NIH3T3, luminescence, dose retest (AID 435004); format: functional;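 further: stress induced by proteasome inhibitor MG132 added 30 min after compound; luciferase reporter driven by HSF1 response element in NIH3T3 cells; actives raise luminescence as potentiators of the MG132 stress response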
T4 sequence (P38532 whole entry): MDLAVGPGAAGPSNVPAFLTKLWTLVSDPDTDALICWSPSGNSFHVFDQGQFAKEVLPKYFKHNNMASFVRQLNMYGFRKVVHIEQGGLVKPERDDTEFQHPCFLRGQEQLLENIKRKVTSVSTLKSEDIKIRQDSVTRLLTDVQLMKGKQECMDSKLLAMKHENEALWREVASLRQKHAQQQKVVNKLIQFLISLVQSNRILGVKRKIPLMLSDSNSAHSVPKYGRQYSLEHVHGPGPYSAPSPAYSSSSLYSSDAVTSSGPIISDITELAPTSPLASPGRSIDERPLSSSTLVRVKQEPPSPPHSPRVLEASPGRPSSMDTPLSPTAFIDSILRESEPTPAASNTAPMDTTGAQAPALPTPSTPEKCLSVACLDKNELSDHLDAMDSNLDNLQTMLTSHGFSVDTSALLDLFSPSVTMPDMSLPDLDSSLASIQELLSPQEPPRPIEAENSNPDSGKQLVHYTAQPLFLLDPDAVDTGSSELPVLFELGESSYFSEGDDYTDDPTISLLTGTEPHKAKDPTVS

cells = format: functional
[5] = biological target: Luciferin 4-monooxygenase (Photinus pyralis, UniProt P08659); assay: firefly luciferase enzyme inhibitors, dose response, biochemical, luminescence (AID 1891)
[6] = Luminescence Cell-Based Dose Confirmation HTS to Identify Inhibitors of Platelet Dense Granule Release. [Related pubchem assays: 1663 (Primary HTS), 1678 (Summary of Project)]; format: functional
[7] = inhibitors of intracellular T. cruzi replication, confirmation, NIH3T3 host cells, beta-gal luminescence (AID 2044); format: functional, cell-based;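 further: intracellular parasites grown in NIH/3T3 mouse fibroblasts as host cells; luminescent beta-galactosidase reporter signal from transgenic T. cruzi replicating inside host cells; inhibitors lower the luminescence signal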
[8] = cytotoxicity toward NIH3T3 fibroblasts, dose response, counter-screen, cell-based, ATP luminescence, mouse fibroblasts (AID 2010); format: functional;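 further: cells exposed to compound for about 90 hours before reading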
[9] = biological target: T4, Heat shock factor protein 1; assay: inhibition of MG132-induced HSE-luciferase signal, confirmation, cell-based, NIH3T3, luminescence, dose retest (AID 2382); format: functional;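 further: NIH3T3 fibroblasts with HSF1-driven luciferase reporter stressed by proteasome inhibitor MG132; luminescence from HSF1-driven luciferase expression after 8 hours of MG132 stress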
[10] = Luminescence Cell-Based Dose Response HTS to Identify Activators of Luciferase Translation or Activity in H4 […] Cells. [Related pubchem assays: 1829 (Project Summary), 1814 (Primary HTS)]; format: functional
H4 = assay: Luminescence Cell-Based Dose Response HTS to Identify Activators of 5'UTR Stem-Loop Driven Prion Protein mRNA Translation in H4 Neuroglioblastoma Cells. [Related pubchem assays: 1829 (Project Summary), 1814 (Primary HTS)]; format: functional; conditions: Homo sapiens
Nonstructural protein 1 = Nonstructural protein 1 (Influenza A virus, UniProt Q194T2); format: functional, Influenza A virus (A/California/07/2009(H1N1))
Streptococcus = assay: Group A Streptococcus viability loss, dose response, counter-screen for streptokinase expression inhibitor project, luminescence, BacTiterGlo (AID 1915); format: functional, organism-based;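 further: potency for reduction of bacterial viability or growth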
[11] = system: Streptococcus sp. 'group A'; assay: growth inhibition of control SK(-) GAS strain, dose response, counter-screen for streptokinase expression inhibitor project, luminescence, kanamycin, BacTiterGlo, confirmation (AID 1900); format: functional, organism-based
[12] = biological target: T5, Ubiquitin-conjugating enzyme E2 N (Homo sapiens, UniProt P61088); format: functional;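 further: Dose-response confirmation in a TR-FRET assay detecting UBC13-driven polyubiquitin chain formation, inhibition measured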
T5 sequence (P61088 whole entry): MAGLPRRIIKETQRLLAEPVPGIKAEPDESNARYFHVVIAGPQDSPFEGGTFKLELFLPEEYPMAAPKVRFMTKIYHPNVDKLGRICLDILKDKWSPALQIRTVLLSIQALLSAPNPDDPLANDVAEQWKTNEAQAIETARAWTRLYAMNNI

[13] = biological target: T6, DNA repair protein RAD52 homolog (Homo sapiens, UniProt P43351); format: functional, biochemical
T6 sequence (P43351 whole entry): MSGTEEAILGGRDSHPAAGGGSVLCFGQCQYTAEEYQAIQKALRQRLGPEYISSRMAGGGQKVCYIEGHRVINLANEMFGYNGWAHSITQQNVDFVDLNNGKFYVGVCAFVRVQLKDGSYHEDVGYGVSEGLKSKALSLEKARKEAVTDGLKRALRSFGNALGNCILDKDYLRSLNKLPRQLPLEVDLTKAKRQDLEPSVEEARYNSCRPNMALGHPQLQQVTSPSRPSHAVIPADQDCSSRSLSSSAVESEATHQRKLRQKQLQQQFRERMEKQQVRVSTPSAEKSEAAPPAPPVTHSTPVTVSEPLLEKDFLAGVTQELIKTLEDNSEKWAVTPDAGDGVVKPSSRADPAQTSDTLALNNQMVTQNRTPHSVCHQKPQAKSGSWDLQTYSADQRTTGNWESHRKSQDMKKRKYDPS

Streptokinase A = biological target: T7, Streptokinase A (Streptococcus pyogenes serotype M1, UniProt P10520); assay: S. pyogenes streptokinase expression inhibitors, potency, dose response, plasminogen activation absorbance, OD405 (AID 1914); format: functional, Streptococcus pyogenes M1 GAS;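 further: secreted streptokinase activity via plasminogen activation per viability signal from cell pellet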
T7 sequence (P10520 whole entry): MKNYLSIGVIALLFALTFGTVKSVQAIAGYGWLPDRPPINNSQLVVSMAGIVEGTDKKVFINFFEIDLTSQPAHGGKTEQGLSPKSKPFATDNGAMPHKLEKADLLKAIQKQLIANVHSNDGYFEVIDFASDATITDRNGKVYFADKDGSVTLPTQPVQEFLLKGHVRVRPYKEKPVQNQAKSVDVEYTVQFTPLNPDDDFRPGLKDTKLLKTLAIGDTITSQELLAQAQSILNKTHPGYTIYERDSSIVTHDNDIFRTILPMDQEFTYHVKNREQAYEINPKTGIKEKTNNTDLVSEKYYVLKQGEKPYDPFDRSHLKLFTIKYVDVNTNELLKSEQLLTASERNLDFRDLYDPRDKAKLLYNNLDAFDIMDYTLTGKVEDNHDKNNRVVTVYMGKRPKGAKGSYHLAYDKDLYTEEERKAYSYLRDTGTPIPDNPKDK

[14] = A cytotoxicity screen of small molecule inhibitors of the PhoP region in Salmonella typhi identified in the primary screen. [Related pubchem assays: 1850, 1864, 1985 ]; format: functional
[15] = microbe, parasite or virus in culture; format: functional; conditions: Mycobacterium tuberculosis

Sequence of Cytochrome P450 3A4 (P08684 whole entry): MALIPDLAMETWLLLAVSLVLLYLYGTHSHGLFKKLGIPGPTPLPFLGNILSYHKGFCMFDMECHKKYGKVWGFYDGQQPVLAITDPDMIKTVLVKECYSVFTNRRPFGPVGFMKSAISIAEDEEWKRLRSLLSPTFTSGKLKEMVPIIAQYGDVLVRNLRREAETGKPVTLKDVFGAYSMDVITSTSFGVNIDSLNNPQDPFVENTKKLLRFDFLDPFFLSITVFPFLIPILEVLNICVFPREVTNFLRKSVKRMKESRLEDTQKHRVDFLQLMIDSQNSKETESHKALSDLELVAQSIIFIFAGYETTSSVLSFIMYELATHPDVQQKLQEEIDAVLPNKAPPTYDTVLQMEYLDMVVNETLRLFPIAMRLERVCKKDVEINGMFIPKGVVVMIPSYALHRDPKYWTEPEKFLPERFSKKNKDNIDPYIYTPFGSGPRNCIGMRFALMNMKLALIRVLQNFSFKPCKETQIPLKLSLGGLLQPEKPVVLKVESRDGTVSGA
Sequence of Voltage-dependent T-type calcium channel subunit alpha-1H (O95180 whole entry): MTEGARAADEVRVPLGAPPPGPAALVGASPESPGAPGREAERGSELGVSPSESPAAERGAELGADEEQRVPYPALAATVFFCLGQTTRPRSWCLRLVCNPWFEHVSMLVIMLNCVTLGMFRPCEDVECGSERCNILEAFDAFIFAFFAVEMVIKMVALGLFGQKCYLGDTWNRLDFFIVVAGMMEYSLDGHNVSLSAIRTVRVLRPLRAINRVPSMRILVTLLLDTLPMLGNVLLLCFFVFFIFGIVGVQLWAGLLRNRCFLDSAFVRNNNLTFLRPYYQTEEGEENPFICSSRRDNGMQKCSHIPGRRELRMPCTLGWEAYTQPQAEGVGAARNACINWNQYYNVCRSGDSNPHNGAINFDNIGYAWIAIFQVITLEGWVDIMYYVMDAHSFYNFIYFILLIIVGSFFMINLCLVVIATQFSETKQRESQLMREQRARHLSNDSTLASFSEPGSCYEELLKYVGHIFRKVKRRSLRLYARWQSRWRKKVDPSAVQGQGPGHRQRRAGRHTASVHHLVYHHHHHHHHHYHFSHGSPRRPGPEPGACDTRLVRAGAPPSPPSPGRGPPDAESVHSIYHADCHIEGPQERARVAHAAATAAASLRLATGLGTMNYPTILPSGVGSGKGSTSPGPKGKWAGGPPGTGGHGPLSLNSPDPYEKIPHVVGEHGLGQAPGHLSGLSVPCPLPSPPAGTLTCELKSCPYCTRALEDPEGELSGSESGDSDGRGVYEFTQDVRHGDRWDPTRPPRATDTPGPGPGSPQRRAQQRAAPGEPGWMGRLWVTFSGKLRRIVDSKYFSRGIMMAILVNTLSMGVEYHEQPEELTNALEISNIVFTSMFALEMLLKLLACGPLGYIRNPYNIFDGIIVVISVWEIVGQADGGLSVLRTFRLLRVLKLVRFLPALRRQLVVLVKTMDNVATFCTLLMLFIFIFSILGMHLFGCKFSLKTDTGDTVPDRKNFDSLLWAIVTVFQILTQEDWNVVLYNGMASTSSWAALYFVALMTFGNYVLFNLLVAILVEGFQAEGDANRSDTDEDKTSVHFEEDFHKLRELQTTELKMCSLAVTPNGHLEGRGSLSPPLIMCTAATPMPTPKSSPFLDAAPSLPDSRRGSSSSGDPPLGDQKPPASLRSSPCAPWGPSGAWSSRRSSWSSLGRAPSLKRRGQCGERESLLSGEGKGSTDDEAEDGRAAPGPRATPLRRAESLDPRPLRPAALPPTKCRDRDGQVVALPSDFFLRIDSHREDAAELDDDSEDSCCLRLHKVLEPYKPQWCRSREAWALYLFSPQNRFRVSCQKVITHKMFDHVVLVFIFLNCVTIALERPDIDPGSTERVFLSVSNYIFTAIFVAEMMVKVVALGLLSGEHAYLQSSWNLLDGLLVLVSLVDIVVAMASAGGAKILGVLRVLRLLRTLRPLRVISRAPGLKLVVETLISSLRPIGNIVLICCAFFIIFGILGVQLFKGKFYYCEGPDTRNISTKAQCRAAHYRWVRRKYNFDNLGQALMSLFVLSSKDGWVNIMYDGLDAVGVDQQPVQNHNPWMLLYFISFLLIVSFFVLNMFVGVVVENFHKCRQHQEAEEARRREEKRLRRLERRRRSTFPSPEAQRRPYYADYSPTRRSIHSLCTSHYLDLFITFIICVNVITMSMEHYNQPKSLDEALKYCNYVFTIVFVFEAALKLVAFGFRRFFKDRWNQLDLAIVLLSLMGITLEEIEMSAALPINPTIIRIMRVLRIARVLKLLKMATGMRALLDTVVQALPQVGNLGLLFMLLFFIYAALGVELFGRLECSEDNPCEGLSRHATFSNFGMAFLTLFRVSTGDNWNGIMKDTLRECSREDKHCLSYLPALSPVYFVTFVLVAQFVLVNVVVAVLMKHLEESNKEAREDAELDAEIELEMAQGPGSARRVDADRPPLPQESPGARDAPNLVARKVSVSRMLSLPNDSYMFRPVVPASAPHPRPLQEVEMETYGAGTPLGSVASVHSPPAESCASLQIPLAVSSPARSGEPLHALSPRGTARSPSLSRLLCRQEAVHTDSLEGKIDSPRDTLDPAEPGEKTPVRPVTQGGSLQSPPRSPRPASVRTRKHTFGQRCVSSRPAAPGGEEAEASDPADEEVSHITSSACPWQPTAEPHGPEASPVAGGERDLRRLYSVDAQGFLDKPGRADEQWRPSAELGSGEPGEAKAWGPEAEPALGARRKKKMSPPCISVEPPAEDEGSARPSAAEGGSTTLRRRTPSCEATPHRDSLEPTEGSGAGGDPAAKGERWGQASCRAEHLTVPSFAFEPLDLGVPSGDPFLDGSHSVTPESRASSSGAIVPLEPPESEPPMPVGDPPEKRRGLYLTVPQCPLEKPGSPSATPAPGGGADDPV
Sequence of Nonstructural protein 1 (Q194T2 whole entry): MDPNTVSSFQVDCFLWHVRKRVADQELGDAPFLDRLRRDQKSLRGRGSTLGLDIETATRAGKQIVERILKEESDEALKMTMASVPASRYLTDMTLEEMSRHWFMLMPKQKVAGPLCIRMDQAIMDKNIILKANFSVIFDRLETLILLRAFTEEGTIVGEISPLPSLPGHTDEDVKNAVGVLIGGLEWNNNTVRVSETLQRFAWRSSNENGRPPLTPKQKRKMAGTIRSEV
Sequence of Luciferin 4-monooxygenase (P08659 whole entry): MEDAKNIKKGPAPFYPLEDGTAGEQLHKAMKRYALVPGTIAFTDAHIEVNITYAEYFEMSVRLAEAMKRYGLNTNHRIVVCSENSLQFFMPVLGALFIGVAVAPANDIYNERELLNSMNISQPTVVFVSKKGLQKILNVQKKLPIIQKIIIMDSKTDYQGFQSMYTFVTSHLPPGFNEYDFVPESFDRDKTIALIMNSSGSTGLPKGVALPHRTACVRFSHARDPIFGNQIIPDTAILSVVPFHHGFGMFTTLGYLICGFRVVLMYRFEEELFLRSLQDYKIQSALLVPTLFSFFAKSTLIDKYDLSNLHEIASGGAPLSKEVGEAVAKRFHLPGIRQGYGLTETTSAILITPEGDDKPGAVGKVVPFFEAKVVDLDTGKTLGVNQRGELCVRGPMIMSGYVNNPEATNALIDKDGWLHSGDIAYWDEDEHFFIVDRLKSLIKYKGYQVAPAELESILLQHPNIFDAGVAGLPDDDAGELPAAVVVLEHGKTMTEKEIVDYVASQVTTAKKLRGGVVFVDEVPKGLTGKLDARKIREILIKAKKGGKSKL

In the case of `Cc1nc(NCc2ccccc2)c2nc(-c3ccccc3)n(CCN(C)C)c2n1`, the AC50 (Cytochrome P450 3A4) was 12.6 µM (inconclusive).

For `C[C@@H]1C=C[C@](Cc2ccccc2)(C(=O)NCCCNc2ncc(C(F)(F)F)cc2Cl)N1C(=O)c1ccccc1`, the AC50 (Cytochrome P450 3A4) was 3.98 µM (inconclusive).

With `CCOc1ccc(NC(=O)COC(=O)c2cccnc2)cc1` the IC50 (Leucine aminopeptidase) was 27.4 µM (active).

In the case of `CCN1C(=O)/C(=C/c2c(C)nn(C)c2C)SC1=S`, the EC50 [1] was 254 µM (inconclusive) and the EC50 [2] was 189 µM (inconclusive).

For `Cc1ccc(S(=O)(=O)NCC(=O)N(CC(=O)NCc2ccco2)Cc2ccc3c(c2)OCO3)cc1`, the EC50 [3] was 3.4 µM (active).

For `Cc1cc(S(=O)(=O)Nc2cccc(O)c2)c(C)s1`, the IC50 (Leucine aminopeptidase) was 14.6 µM (active).

For `Cc1nc2c(-c3ccc(F)cc3)c(C)nn2c(C)c1CCC(=O)N1CCC(Cc2ccccc2)CC1`, the EC50 [3] was 6.64 µM (active).

With `CCn1c(SCCOc2ccc(Cl)cc2)nnc1-c1cccs1` the EC50 [4] was > 260 µM (inactive) and the EC50 [3] was 5.63 µM (active).

With `COc1cc(/C=C2/C(=O)NN(c3cccc(F)c3)C2=O)ccc1OC(=O)c1ccco1` the IC50 (cells) was 16.7 µM (active), the EC50 [5] was > 112 µM (not active) and the EC50 [6] was > 112 µM (not active).

In the case of `Cc1cccc(N2CCN(Cc3ccc([N+](=O)[O-])o3)CC2)c1C`, the IC50 (cells) was 0.37 µM (active), the EC50 [7] was 1.36 µM (active) and the EC50 [8] was > 60 µM (not active).

In the case of `COC(=O)[C@@H]1C[C@@]2(O)[C@@H](O)[C@@H](O)[C@@H](O)C[C@H]2N1CC1CCCCC1`, the AC50 (Cytochrome P450 3A4) was 12.6 µM (inconclusive).

In the case of `CNC(=O)NC(=O)COC(=O)c1ccc(-n2c(C)ccc2C)cc1`, the EC50 [1] was > 300 µM (not active), the EC50 [9] was > 195 µM (not active) and the EC50 [2] was > 300 µM (not active).

For `CCC1=C2CC[C@H]3C(=O)N(c4ccccc4)C(=O)[C@H]3[C@H]2[C@@]2(C)C(=O)N(CC(=O)OC)C(=O)N2C1=O`, the AC50 (Cytochrome P450 3A4) was 15.8 µM (inconclusive).

For `O=C(Nc1cnc2ccccc2c1)C1COc2ccccc2O1` (centres undefined), the EC50 [10] was < 0.1 µM (active), the EC50 (H4) was 37.6 µM (active) and the EC50 [3] was 2.93 µM (active).

For `CN(C)CCCN=C(S)NCC(c1ccc(Cl)cc1Cl)c1c[nH]c2ccccc12` (centres undefined), the IC50 (Nonstructural protein 1) was 65.8 µM (active), the EC50 (Streptococcus) was 15.4 µM (active) and the EC50 [11] was 5 µM (active). For the same compound, the IC50 [12] was > 20 µM (inactive), the AC50 [13] was 6.45 µM (active) and the EC50 (Streptokinase A) was > 150 µM (not active).

For `Cc1ncc(N=Nc2ccccc2Cl)c(-c2ccccc2)n1`, the IC50 (Nonstructural protein 1) was 39.1 µM (active).

In the case of `COC(=O)COc1ccc2c(-c3ccc(OC)cc3)cc(=O)oc2c1`, the IC50 (cells) was 1.43 µM (active).

For `Cn1c(=O)cc(SCC(=O)N2CCN(C3CCCCC3)CC2)c2ccccc21`, the EC50 [14] was > 50 µM (active) and the IC50 [12] was > 20 µM (inactive).

With `Cc1onc(-c2ccccc2Cl)c1C(=O)Nc1ccc(F)c(F)c1` the EC50 [5] was > 112 µM (not active), the EC50 [6] was > 112 µM (not active) and the EC50 [3] was 5.58 µM (active).

With `Cc1c(N2C(=O)/C(=C/c3cccc4ccccc34)SC2=S)c(=O)n(-c2ccccc2)n1C` the IC50 (Nonstructural protein 1) was > 100 µM (active).

In the case of `CCN(CC)c1ccc(C(=C2C=CC(=[N+](CC)CC)C=C2)c2ccc(S(=O)(=O)O)cc2S(=O)(=O)[O-])cc1`, the IC50 (Nonstructural protein 1) was 17.7 µM (active).

With `CN1CCN(/N=C/c2c3ccccc3c(Cl)c3ccccc23)CC1` the CC50 [15] was 24 µM (active) and the IC50 (Nonstructural protein 1) was 24.9 µM (active).

For `CN1Cc2c(c(C#N)c(N)n(C)c2=S)CC1(C)C`, the EC50 [1] was 35.4 µM (active) and the EC50 [2] was 29.1 µM (active).

In the case of `Cc1nccn1CC(=O)N/N=C/c1ccccc1O`, the IC50 (Nonstructural protein 1) was 18.4 µM (active).
